Laboratory results reported in US7863274B2, “Deuterium enriched analogues of tadalafil as PDE5 inhibitors” (Concert Pharmaceuticals Inc., priority 2005, dated 2011).

Legend:
[1] = test system: spontaneously hypertensive rats; experiment: Hypotensive effects in the spontaneous hypertensive rat model (Cerep); type: in vivo; conditions: oral administration, 10 mg/kg, 8 rats per group, over 8 h
Method: Hypotensive effects in the spontaneous hypertensive rat model. Effects of the products of examples 7, 9, 12, 18, 27 and 30 are tested by oral administration to spontaneously hypertensive rats at Cerep, using essentially the procedure of Bazil M K et. al., J. Cardiovasc. Pharmacol. 1993 22: 897 and a sample size of 8 rats per group.

[2] = humans, cited from earlier work

| SMILES | reduction in blood pressure [1] | other results |
| --- | --- | --- |
| [2H]C1([2H])Oc2ccc([C@@H]3c4[nH]c5ccccc5c4C[C@@H]4C(=O)N(C)CC(=O)N34)cc2O1 [Example 27, (6R,12aR)-6-(2,2-dideuterobenzo[d]-1,3-dioxol-5-yl)-2-methyl-1,2,3,4,6,7,12,12a-octahydropyrazino[1′,2′:1,6]pyrido[3,4-b]indole-1,4-dione] | significant reductions in blood pressure sustained over 8 h |  |
| CN1CC(=O)N2[C@H](c3ccc4c(c3)OC(F)(F)O4)c3[nH]c4ccccc4c3C[C@@H]2C1=O [Example 18, (6R,12aR)-6-(2,2-Difluorobenzo[d]-1,3-dioxol-5-yl)-1,2,3,4,6,7,12,12a-octahydropyrazino[1′,2′:1,6]pyrido[3,4-b]indole-2-methyl-1,4-dione] | significant reductions in blood pressure sustained over 8 h |  |
| CN1CC(=O)N2[C@H](c3ccc4c(c3)OCO4)c3[nH]c4ccccc4c3C[C@@H]2C1=O [Compound 1, (6R,12aR)-6-(1,3-benzodioxol-5-yl)-2-methyl-1,2,3,4,6,7,12,12a-octahydropyrazino[1′,2′:1,6]pyrido[3,4-b]indole-1,4-dione] |  | half-life and exposure (AUC) when dosed concurrently with CYP3A4 inhibitors ([2]; co-dosing with inhibitors of CYP3A4): clinically meaningful increases; absorption following oral administration ([2]; oral): well absorbed; amount excreted unchanged ([2]; oral): only a minor amount |
| [2H]C([2H])([2H])N1CC(=O)N2[C@H](c3ccc4c(c3)OC(F)(F)O4)c3[nH]c4ccccc4c3C[C@@H]2C1=O [Example 7, (6R,12aR)-6-(2,2-Difluorobenzo[d]-1,3-dioxol-5-yl)-1,2,3,4,6,7,12,12a-octahydropyrazino[1′,2′:1,6]pyrido[3,4-b]indole-2-trideuteromethyl-1,4-dione] | significant reductions in blood pressure sustained over 8 h |  |
| [2H]C1([2H])Oc2ccc([C@@H]3c4[nH]c5ccccc5c4C[C@@H]4C(=O)N(C([2H])([2H])[2H])CC(=O)N34)cc2O1 [Example 30, (6R,12aR)-6-(2,2-dideuterobenzo[d]-1,3-dioxol-5-yl)-1,2,3,4,6,7,12,12a-octahydropyrazino[1′,2′:1,6]pyrido[3,4-b]indole-2-trideuteromethyl-1,4-dione] | significant reductions in blood pressure sustained over 8 h |  |
| [2H]c1cc2c(cc1[C@@H]1c3[nH]c4ccccc4c3C[C@@H]3C(=O)N(C)CC(=O)N13)OC(F)(F)O2 [Example 9, (6R,12aR)-6-(6-Deutero-2,2-difluorobenzo[d]-1,3-dioxol-5-yl)-2-methyl-1,2,3,4,6,7,12,12a-octahydropyrazino[1′,2′:1,6]pyrido[3,4-b]indole-1,4-dione] | significant reductions in blood pressure sustained over 8 h |  |
| [2H][C@@]1(c2ccc3c(c2)OC(F)(F)O3)c2[nH]c3ccccc3c2C[C@@H]2C(=O)N(C)CC(=O)N21 [Example 12, (6R,12aR)-6-Deutero-6-(2,2-difluorobenzo[d]-1,3-dioxol-5-yl)2-methyl-1,2,3,4,6,7,12,12a-octahydropyrazino[1′,2′:1,6]pyrido[3,4-b]indole-1,4-dione] | significant reductions in blood pressure sustained over 8 h |  |
